The values below come from patent US20250270172A1, “Pyrimidine Derivatives As Modulators of the 5-HT2A Serotonin Receptor Useful For The Treatment of Disorders Related Thereto” (Arena Pharmaceuticals, Inc., priority 2020, published 2025).

Molecules are shown by their SMILES.

In this assay the target is 5-HT2A (Homo sapiens (Human), UniProt P28223). Briefly: Radioligand binding assay, [^3H]5-HT competition, 5-HT2A. As to conditions: [^3H]5-HT radioligand, membranes of HEK293 cells expressing recombinant 5-HT2A; Ki from IC50 by Cheng-Prusoff; read-out: 5-HT2A serotonin binding Ki value.
5-HT2A, sequence (P28223 whole entry): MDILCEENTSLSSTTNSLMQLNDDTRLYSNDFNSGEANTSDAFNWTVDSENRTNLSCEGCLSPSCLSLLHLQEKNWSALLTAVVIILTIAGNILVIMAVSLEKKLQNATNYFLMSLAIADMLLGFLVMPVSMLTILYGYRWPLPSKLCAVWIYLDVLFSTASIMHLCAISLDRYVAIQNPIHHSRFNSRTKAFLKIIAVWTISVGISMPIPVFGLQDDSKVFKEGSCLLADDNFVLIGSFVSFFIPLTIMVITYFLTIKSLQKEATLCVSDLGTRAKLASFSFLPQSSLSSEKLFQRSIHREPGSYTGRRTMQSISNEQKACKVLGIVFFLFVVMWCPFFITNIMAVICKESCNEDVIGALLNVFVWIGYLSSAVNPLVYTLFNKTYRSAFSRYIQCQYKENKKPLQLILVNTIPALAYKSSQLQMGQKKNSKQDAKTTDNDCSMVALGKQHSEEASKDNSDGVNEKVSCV
Regarding `CCCN(C)CCOc1ccc(NC(=O)C2CC2)cc1-c1c(C)ncnc1C` [Compound 367, N-(3-(4,6-dimethylpyrimidin-5-yl)-4-(2-(methyl(propyl)amino)ethoxy)phenyl)cyclopropanecarboxamide], the inhibition constant (Ki) was 37.6 nM. With `Cc1ncnc(C)c1-c1cc(NC(=O)C2CC2)ccc1OCCN(C)CC1CC1` [Compound 368, N-(4-(2-((cyclopropylmethyl)(methyl)amino)ethoxy)-3-(4,6-dimethylpyrimidin-5-yl)phenyl)cyclopropanecarboxamide], the Ki was found to be 19.6 nM. Next, `Cc1ncnc(C)c1-c1cc(NC(=O)C2CC2)ccc1OCCN(C)C1CCC1` [Compound 369, N-(4-(2-(cyclobutyl(methyl)amino)ethoxy)-3-(4,6-dimethylpyrimidin-5-yl)phenyl)cyclopropanecarboxamide]: 51.8 nM; `CCN(CC)CCOc1ccc(NC(=O)C2CC2)cc1-c1c(C)ncnc1C` [Compound 370, N-(4-(2-(diethylamino)ethoxy)-3-(4,6-dimethylpyrimidin-5-yl)phenyl)cyclopropanecarboxamide]: 78.6 nM.

Take `COCCNCCOc1ccc(NC(=O)c2ccccc2)cc1-c1c(C)ncnc1C` [Compound 371, N-(3-(4,6-dimethylpyrimidin-5-yl)-4-(2-((2-methoxyethyl)amino)ethoxy)phenyl)benzamide]: the Ki was determined as 4.77 nM. With `COCCNCCOc1ccc(NC(=O)c2cccc(OC)c2)cc1-c1c(C)ncnc1C` [Compound 372, N-(3-(4,6-dimethylpyrimidin-5-yl)-4-(2-((2-methoxyethyl)amino)ethoxy)phenyl)-3-methoxybenzamide], the Ki turned out to be 1.99 nM.

On to `COCCNCCOc1ccc(NC(=O)c2cccc(F)c2)cc1-c1c(C)ncnc1C` [Compound 373, N-(3-(4,6-dimethylpyrimidin-5-yl)-4-(2-((2-methoxyethyl)amino)ethoxy)phenyl)-3-fluorobenzamide], for which the Ki turned out to be 1.73 nM. Next, `COCCNCCOc1ccc(NC(=O)c2ccc(F)cc2)cc1-c1c(C)ncnc1C` [Compound 374, N-(3-(4,6-dimethylpyrimidin-5-yl)-4-(2-((2-methoxyethyl)amino)ethoxy)phenyl)-4-fluorobenzamide]: 3.44 nM; `COCCNCCOc1ccc(NC(=O)c2c(F)cnn2C)cc1-c1c(C)ncnc1C` [Compound 375, N-(3-(4,6-dimethylpyrimidin-5-yl)-4-(2-((2-methoxyethyl)amino)ethoxy)phenyl)-4-fluoro-1-methyl-1H-pyrazole-5-carboxamide]: 13.3 nM; `COCCN(C)CCOc1ccc(NC(=O)c2ccccc2)cc1-c1c(C)ncnc1C` [Compound 376, N-(3-(4,6-dimethylpyrimidin-5-yl)-4-(2-((2-methoxyethyl) (methyl)amino)ethoxy)phenyl)benzamide]: 63.3 nM. In the case of `COCCN(C)CCOc1ccc(NC(=O)c2cccc(OC)c2)cc1-c1c(C)ncnc1C` [Compound 377, N-(3-(4,6-dimethylpyrimidin-5-yl)-4-(2-((2-methoxyethyl)(methyl)amino)ethoxy)phenyl)-3-methoxybenzamide], the Ki was found to be 2.64 nM.

As to `COCCN(C)CCOc1ccc(NC(=O)c2cccc(F)c2)cc1-c1c(C)ncnc1C` [Compound 378, N-(3-(4,6-dimethylpyrimidin-5-yl)-4-(2-((2-methoxyethyl)(methyl)amino)ethoxy)phenyl)-3-fluorobenzamide], the Ki came to 12.5 nM.

Take `COCCN(C)CCOc1ccc(NC(=O)c2ccc(F)cc2)cc1-c1c(C)ncnc1C` [Compound 379, N-(3-(4,6-dimethylpyrimidin-5-yl)-4-(2-((2-methoxyethyl)(methyl)amino)ethoxy)phenyl)-4-fluorobenzamide]: the Ki is 8.38 nM. The result for `COCCN(C)CCOc1ccc(NC(=O)c2c(F)cnn2C)cc1-c1c(C)ncnc1C` [Compound 380, N-(3-(4,6-dimethylpyrimidin-5-yl)-4-(2-((2-methoxyethyl)(methyl)amino)ethoxy)phenyl)-4-fluoro-1-methyl-1H-pyrazole-5-carboxamide] reads 9.47 nM. With `Cc1ncnc(C)c1-c1cc(NC(=O)c2ccccc2)ccc1OCCN1C[C@@H]2C[C@H]1CO2` [Compound 381, N-(4-(2-((1S,4S)-2-oxa-5-azabicyclo[2.2.1]heptan-5-yl)ethoxy)-3-(4,6-dimethylpyrimidin-5-yl)phenyl)benzamide], the Ki is 5.54 nM. Turning to `Cc1ncnc(C)c1-c1cc(NC(=O)C2(F)CC2)ccc1OCCN1C[C@@H]2C[C@H]1CO2` [Compound 382, N-(4-(2-((1S,4S)-2-oxa-5-azabicyclo[2.2.1]heptan-5-yl)ethoxy)-3-(4,6-dimethylpyrimidin-5-yl)phenyl)-1-fluorocyclopropane-1-carboxamide], the Ki amounted to 8.81 nM. The result for `Cc1ncnc(C)c1-c1cc(NC(=O)c2ccnn2C)ccc1OCCN1C[C@@H]2C[C@H]1CO2` [Compound 383, N-(4-(2-((1S,4S)-2-oxa-5-azabicyclo[2.2.1]heptan-5-yl)ethoxy)-3-(4,6-dimethylpyrimidin-5-yl)phenyl)-1-methyl-1H-pyrazole-5-carboxamide] reads 8.89 nM; that for `Cc1ncnc(C)c1-c1cc(NC(=O)c2ccccc2)ccc1OCCN1C[C@H]2C[C@H]2C1` [Compound 384, N-[4-[2-[(1R,5S)-3-azabicyclo[3.1.0]hexan-3-yl]ethoxy]-3-(4,6-dimethylpyrimidin-5-yl)phenyl]benzamide], 3.63 nM. The result for `Cc1ncnc(C)c1-c1cc(NC(=O)C2CC2)ccc1OCCN1CC(F)C1` [Compound 386, N-[3-(4,6-Dimethylpyrimidin-5-yl)-4-[2-(3-fluoroazetidin-1-yl)ethoxy]phenyl]cyclopropanecarboxamide] reads 1.48 nM; that for `Cc1ncnc(C)c1-c1cc(NC(=O)c2ccccc2)ccc1OCCN1CC(F)C1` [Compound 387, N-[3-(4,6-dimethylpyrimidin-5-yl)-4-[2-(3-fluoroazetidin-1-yl)ethoxy]phenyl]benzamide], 13.3 nM. The result for `Cc1ncnc(C)c1-c1cc(NC(=O)C2CC2)ccc1OCCN1CC(O)C1` [Compound 388, N-[3-(4,6-dimethylpyrimidin-5-yl)-4-[2-(3-hydroxyazetidin-1-yl)ethoxy]phenyl]cyclopropanecarboxamide] reads 13.7 nM; that for `Cc1ncnc(C)c1-c1cc(NC(=O)c2ccccc2)ccc1OCCN1CC(O)C1` [Compound 389, N-[3-(4,6-dimethylpyrimidin-5-yl)-4-[2-(3-hydroxyazetidin-1-yl)ethoxy]phenyl]benzamide], 11.2 nM; that for `Cc1ncnc(C)c1-c1cc(NC(=O)C2CC2)ccc1OCCN1CCOCC1` [Compound 390, N-[3-(4,6-dimethylpyrimidin-5-yl)-4-(2-morpholinoethoxy)phenyl]cyclopropanecarboxamide], 5.25 nM. Take `Cc1ncncc1-c1cc(NC(=O)C2CC2)ccc1OCCN1CCOCC1` [Compound 391, N-(3-(4-methylpyrimidin-5-yl)-4-(2-morpholinoethoxy)phenyl)cyclopropanecarboxamide]: the Ki came out at 25.3 nM. Turning to `Cc1ncnc(C)c1-c1cc(NC(=O)[C@@H]2C[C@@H]2F)ccc1OCCN1CCOCC1` [Compound 392, (1S,2S)—N-[3-(4,6-dimethylpyrimidin-5-yl)-4-(2-morpholinoethoxy)phenyl]-2-fluoro-cyclopropanecarboxamide], the Ki is 15.2 nM.

The term Ki denotes the equilibrium dissociation constant of an inhibitor or competing ligand from its target.
